Measured values reported in patent US12398132B2, “Derivatives of 4-(imidazo[1,2-a]pyridin-3-yl)-n-(pyridinyl)pyrimidin-2-amine as therapeutic agents” (AUCENTRA THERAPEUTICS PTY LTD, priority 2019, dated 2025).

Columns and labels:
MV-4-11 = test: Proliferation assay (resazurin/MTT), MV-4-11; format: cell-based; conditions: Homo sapiens, MV4-11, read-out: 72 h Growth inhibition GI50, MV-4-11 cells
U937 = test: Proliferation assay (resazurin/MTT), U937; format: cell-based; conditions: Homo sapiens, U-937, read-out: 72 h Growth inhibition GI50, U937 cells
FLT3(ITD) = biological target: T1, FLT3(ITD) (Homo sapiens, UniProt P36888); test: ADP Glo kinase assay, FLT3(ITD); format: biochemical; conditions: apparent Ki calculated from Km (ATP) and IC50, read-out: FLT3 inhibition Ki
T1 sequence (P36888 1-993): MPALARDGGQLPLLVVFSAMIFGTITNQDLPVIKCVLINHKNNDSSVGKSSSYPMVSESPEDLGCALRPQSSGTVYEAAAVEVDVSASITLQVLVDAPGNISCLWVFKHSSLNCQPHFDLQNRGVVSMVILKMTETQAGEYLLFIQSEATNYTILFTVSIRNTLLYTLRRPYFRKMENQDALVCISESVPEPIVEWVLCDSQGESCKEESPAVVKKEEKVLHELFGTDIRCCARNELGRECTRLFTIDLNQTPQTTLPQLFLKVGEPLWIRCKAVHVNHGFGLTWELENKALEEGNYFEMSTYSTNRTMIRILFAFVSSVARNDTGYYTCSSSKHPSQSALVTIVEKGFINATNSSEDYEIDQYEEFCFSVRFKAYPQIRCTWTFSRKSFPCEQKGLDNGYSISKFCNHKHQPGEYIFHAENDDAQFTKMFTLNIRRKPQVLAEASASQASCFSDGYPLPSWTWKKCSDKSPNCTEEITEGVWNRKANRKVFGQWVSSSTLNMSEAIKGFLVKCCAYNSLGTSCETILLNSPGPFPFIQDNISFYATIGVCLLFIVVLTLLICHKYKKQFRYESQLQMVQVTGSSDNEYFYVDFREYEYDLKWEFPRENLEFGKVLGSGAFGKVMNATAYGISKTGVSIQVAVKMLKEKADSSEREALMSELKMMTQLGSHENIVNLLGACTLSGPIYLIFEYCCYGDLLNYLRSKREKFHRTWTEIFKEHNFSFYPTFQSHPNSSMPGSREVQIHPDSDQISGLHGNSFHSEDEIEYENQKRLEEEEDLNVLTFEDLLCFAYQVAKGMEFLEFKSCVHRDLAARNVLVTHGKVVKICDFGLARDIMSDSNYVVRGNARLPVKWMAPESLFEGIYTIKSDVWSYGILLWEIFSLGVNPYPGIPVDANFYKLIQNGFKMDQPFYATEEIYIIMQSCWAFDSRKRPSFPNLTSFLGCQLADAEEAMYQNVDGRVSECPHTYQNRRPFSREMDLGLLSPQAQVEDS
Description: Inhibition of FLT3(WT), FLT3(ITD) and FLT3(D835Y) and CDKs were determined using ADP Glo Kinase assays (Promega Corporation, Madison, WI, USA). […] The kinase reactions are run for an optimised time period (FLT3-WT: 120 min, FLT3-ITD: 80 min, FLT3-D835Y: 100 min) at room temperature and then the reaction was stopped by adding 5 μL of ADP Glo reagent. […] Positive and negative controls were performed in 0.5% DMSO in the presence and absence of each FLT3 kinase, respectively. […] Half-maximal inhibition (IC50) values were calculated using a 4-parameter logistic non-linear regression model with Graphpad prism (Version 6.0). Apparent inhibition constants (Ki) values were calculated from Km (ATP) and IC50 values for the respective kinases.

CDK2E1 = CDK2E1 (Homo sapiens, UniProt P24941); conditions: 1 µM
CDK9/CyclinT1 = CDK9/CyclinT1 (Homo sapiens, UniProt P50750); test: ADP Glo kinase assay, CDK9/CyclinT1; format: biochemical; conditions: CDK9T1; apparent Ki calculated from Km (ATP) and IC50; read-out: CDK inhibition Ki
Sequence of CDK9/CyclinT1 (P50750 whole entry, species assumed): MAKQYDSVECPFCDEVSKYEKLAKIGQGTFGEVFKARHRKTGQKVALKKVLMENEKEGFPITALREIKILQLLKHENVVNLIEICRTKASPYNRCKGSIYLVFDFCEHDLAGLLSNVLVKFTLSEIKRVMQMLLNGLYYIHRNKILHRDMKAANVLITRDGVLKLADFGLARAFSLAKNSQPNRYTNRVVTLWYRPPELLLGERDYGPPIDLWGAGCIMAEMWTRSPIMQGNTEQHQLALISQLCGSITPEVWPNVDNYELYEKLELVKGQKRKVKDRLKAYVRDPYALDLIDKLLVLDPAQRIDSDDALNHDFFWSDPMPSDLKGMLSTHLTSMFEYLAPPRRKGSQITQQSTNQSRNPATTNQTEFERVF
Sequence of CDK9/CyclinT1 (O60563 whole entry partner, species assumed): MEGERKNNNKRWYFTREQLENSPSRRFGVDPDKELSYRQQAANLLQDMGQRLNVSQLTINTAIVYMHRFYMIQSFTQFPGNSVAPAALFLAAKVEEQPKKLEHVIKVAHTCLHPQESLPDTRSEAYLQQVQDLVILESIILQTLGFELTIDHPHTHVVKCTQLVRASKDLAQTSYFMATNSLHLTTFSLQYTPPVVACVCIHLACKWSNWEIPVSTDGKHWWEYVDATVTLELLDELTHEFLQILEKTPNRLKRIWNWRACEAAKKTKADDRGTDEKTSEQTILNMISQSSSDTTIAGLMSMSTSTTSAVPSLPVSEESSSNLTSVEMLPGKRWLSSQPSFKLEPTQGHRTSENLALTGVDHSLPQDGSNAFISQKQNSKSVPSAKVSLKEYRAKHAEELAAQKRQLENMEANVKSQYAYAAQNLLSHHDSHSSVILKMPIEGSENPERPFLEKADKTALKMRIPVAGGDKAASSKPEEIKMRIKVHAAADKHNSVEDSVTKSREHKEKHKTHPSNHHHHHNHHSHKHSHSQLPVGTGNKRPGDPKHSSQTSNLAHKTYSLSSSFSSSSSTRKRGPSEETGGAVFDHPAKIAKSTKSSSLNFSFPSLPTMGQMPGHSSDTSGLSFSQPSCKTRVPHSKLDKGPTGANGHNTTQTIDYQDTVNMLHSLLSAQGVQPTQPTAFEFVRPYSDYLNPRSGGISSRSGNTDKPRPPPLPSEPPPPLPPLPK

Compound	GI50 (MV-4-11)	GI50 (U937)	Ki (FLT3(ITD))	activity (CDK2E1)	Ki (CDK9/CyclinT1)
Cc1ccc(Nc2nccc(-c3cnc4ccccn34)n2)nc1 [Cmpd 55, 4-(Imidazo[1,2-a]pyridin-3-yl)-N-(5-methylpyridin-2-yl)pyrimidin-2-amine]	49 nM	471 nM	44 nM	–	–
CCC(=O)N1CCN(c2ccc(Nc3nccc(-c4cnc5ccccn45)n3)nc2)CC1 [Cmpd 56, 1-(4-(6-((4-(Imidazo[1,2-a]pyridin-3-yl)pyrimidin-2-yl)amino)pyridin-3-yl)piperazin-1-yl)propan-1-one]	22 nM	339 nM	16 nM	–	–
CC(=O)N1CCN(c2ccc(Nc3nccc(-c4cnc5ccc(-c6cc[nH]n6)cn45)n3)nc2)CC1 [Cmpd 57, 1-(4-(6-((4-(6-(1H-Pyrazol-3-yl)imidazo[1,2-a]pyridin-3-yl)pyrimidin-2-yl)amino)pyridin-3-yl)piperazin-1-yl)ethan-1-one]	4 nM	728 nM	6 nM	–	–
CC(=O)N1CCN(c2ccc(Nc3nccc(-c4cnc5ccc(-c6ccn(C)n6)cn45)n3)nc2)CC1 [Cmpd 58, 1-(4-(6-((4-(6-(1-Methyl-1H-pyrazol-3-yl)imidazo[1,2-a]pyridin-3-yl)pyrimidin-2-yl)amino)pyridin-3-yl)piperazin-1-yl)ethan-1-one]	9 nM	206 nM	49 nM	–	–
CC(=O)N1CCN(c2ccc(Nc3nccc(-c4cnc5ccc(-c6cnn(C(F)F)c6)cn45)n3)nc2)CC1 [Cmpd 59]	8 nM	462 nM	18 nM	–	–
CC(=O)N1CCN(c2ccc(Nc3nccc(-c4cnc5ccc(-c6cnn(C7CCN(C(=O)OC(C)(C)C)CC7)c6)cn45)n3)nc2)CC1 [Cmpd 60, Tert-butyl 4-(4-(3-(2-((5-(4-acetylpiperazin-1-yl)pyridin-2-yl)amino)pyrimidin-4-yl)imidazo[1,2-a]pyridin-6-yl)-1H-pyrazol-1-yl)piperidine-1-carboxylate]	19 nM	243 nM	84 nM	–	–
CC(=O)N1CCN(c2ccc(Nc3nccc(-c4cnc5ccc(-c6ccc(C)o6)cn45)n3)nc2)CC1 [Cmpd 61, 1-(4-(6-((4-(6-(5-Methylfuran-2-yl)imidazo[1,2-a]pyridin-3-yl)pyrimidin-2-yl)amino)pyridin-3-yl)piperazin-1-yl)ethan-1-one]	< 0.1 nM	199 nM	4 nM	–	–
CN1CCN(c2ccc(Nc3nccc(-c4cnc5ccc(-c6cnn(C)c6)cn45)n3)nc2)CC1 [Cmpd 62, 4-(6-(1-Methyl-1H-pyrazol-4-yl)imidazo[1,2-a]pyridin-3-yl)-N-(5-(4-methylpiperazin-1-yl)pyridin-2-yl)pyrimidin-2-amine]	6 nM	773 nM	29 nM	–	–
CC(=O)N1CCN(c2ccc(Nc3nccc(-c4cnc5ccc(C6=CCN(C(=O)OC(C)(C)C)CC6)cn45)n3)nc2)CC1 [Cmpd 63, Tert-butyl 4-(3-(2-((5-(4-acetylpiperazin-1-yl)pyridin-2-yl)amino)pyrimidin-4-yl)imidazo[1,2-a]pyridin-6-yl)-3,6-dihydropyridine-1(2H)-carboxylate]	35 nM	436 nM	132 nM	–	–
CC(C)(C)OC(=O)N1CC=C(c2ccc(Nc3nccc(-c4cnc5ccccn45)n3)nc2)CC1 [Cmpd 64, Tert-butyl 6-((4-(imidazo[1,2-a]pyridin-3-yl)pyrimidin-2-vi)amino)-3′,6′-dihydro-[3,4′-bipyridine]-1′(2′H)-carboxylate]	152 nM	367 nM	308 nM	–	–
CN1CCN(c2ccc(Nc3nccc(-c4cnc5ccc(-c6cccnc6)cn45)n3)nc2)CC1 [Cmpd 65, N-(5-(4-Methylpiperazin-1-yl)pyridin-2-yl)-4-(6-(pyridin-3-yl)imidazo[1,2-a]pyridin-3-yl)pyrimidin-2-amine]	32 nM	382 nM	30 nM	–	–
CN1CCN(c2ccc(Nc3nccc(-c4cnc5ccc(-c6cncnc6)cn45)n3)nc2)CC1 [Cmpd 66, N-(5-(4-Methylpiperazin-1-yl)pyridin-2-yl)-4-(6-(pyrimidin-5-yl)imidazo[1,2-a]pyridin-3-yl)pyrimidin-2-amine]	174 nM	1090 nM	116 nM	80%	345 nM
CCN1CCN(Cc2ccc(Nc3ncc(F)c(-c4cnc5ccc(-c6ccccc6)cn45)n3)nc2)CC1 [Cmpd 68, N-(5-((4-Ethylpiperazin-1-yl)methyl)pyridin-2-yl)-5-fluoro-4-(6-phenylimidazo[1,2-a]pyridin-3-yl)pyrimidin-2-amine]	117 nM	600 nM	70 nM	–	–
CN(C)C1CCN(c2ccc(Nc3ncc(F)c(-c4cnc5ccc(-c6ccccc6)cn45)n3)nc2)CC1 [Cmpd 69, N-(5-(4-(Dimethylamino)piperidin-1-yl)pyridin-2-yl)-5-fluoro-4-(6-phenylimidazo[1,2-a]pyridin-3-yl)pyrimidin-2-amine]	18 nM	946 nM	16 nM	–	–
